Assay results published in PubChem BioAssay (NCI).
Where “and” joins values, the source holds several entries; their conditions need not be identical. Equal entries are not always repeated.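 Cells were grown in 96-well plates and exposed to each compound for 48 hours at five concentrations; endpoints were interpolated linearly between bracketing concentrations, or set to the highest concentration if not reached. GI50: concentration for 50% inhibition of growth. TGI denotes the concentration required for complete inhibition of growth.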

Assays:
Experiment in all cases: growth of human tumour cells (NCI), 48 h
[1] = test system: TK-10 renal
[2] = test system: COLO 205 colon
[3] = test system: T-47D breast
[4] = test system: HCT-15 colon
[5] = test system: UACC-62 melanoma
[6] = test system: NCI-H226 lung
[7] = test system: IGROV1 ovarian
[8] = test system: SF-539 CNS
[9] = test system: SF-295 CNS
[10] = test system: DU-145 prostate

| SMILES | GI50 [1] | TGI [1] | GI50 [2] | TGI [2] [µM] | GI50 [3] | TGI [3] | GI50 [4] | TGI [4] | GI50 [5] | TGI [5] | GI50 [6] | TGI [6] | GI50 [7] | TGI [7] | GI50 [8] | TGI [8] | GI50 [9] | TGI [9] | GI50 [10] | TGI [10] |
| --- | --- | --- | --- | --- | --- | --- | --- | --- | --- | --- | --- | --- | --- | --- | --- | --- | --- | --- | --- | --- |
| Cn1cc(-c2csc(-c3ccccc3)n2)c2cccnc21 | 17.9 µM | 39.1 µM | 14 µM | 26.9 | 6.04 µM | 28.5 µM | 12.8 µM | 31.7 µM | 12.3 µM | 25.5 µM | 16.6 µM | 42.4 µM | 16.5 µM | 37.4 µM | 14.2 µM | 28.3 µM | 15 µM | 33.7 µM | 15 µM | 29.3 µM |
| CCOC(=O)c1c(-c2ccccc2)n2c(=O)cc(C)c3c(O)c(O)cc1c32 | 22.7 µM | > 100 µM | 11 µM | 28.2 | 5.43 µM | > 100 µM | 1.66 µM | 19.5 µM | 7.94 µM | 20.9 µM | 11.4 µM | 42.1 µM | 4.99 µM | 19.2 µM | 4.56 µM | 25.1 µM | 6.75 µM | > 100 µM | 10.5 µM | 23.9 µM |
| CO/N=C(/C)COc1ccc2c(c1)oc(=O)c1cc(OC)ccc12 | > 100 µM | > 100 µM | > 100 µM | > 100 | > 100 µM | > 100 µM | > 100 µM | > 100 µM | > 100 µM | > 100 µM | > 100 µM | > 100 µM | > 100 µM | > 100 µM | > 100 µM | > 100 µM | 82.4 µM | > 100 µM | > 100 µM | > 100 µM |
| CC(C)n1cc(-c2ccc3c(c2)N(C)CC3)c2c(NS(=O)(=O)c3ccn(C)n3)ccnc21 | > 100 µM | > 100 µM | > 100 µM | > 100 | 29.7 µM | > 100 µM | 35.9 µM | > 100 µM | 36.7 µM | > 100 µM | 39.4 µM | > 100 µM | 59.1 µM | > 100 µM | 64.4 µM | > 100 µM | 27.4 µM | > 100 µM | > 100 µM | > 100 µM |
| Cc1c(O)cccc1C(=O)N[C@@H](CSc1ccccc1)[C@H](O)CN1C[C@H]2CCCC[C@H]2C[C@H]1C(=O)NC(C)(C)C | 4.26 µM and 5.89 µM | 23.6 µM and 24.5 µM | 2.24 µM and 4.05 µM | 6.03 | 3.79 µM and 6.02 µM | 19.4 µM and > 55.6 µM | 1.77 µM and 3.11 µM | 13.2 µM and 12.9 µM | 5.79 µM and 5.8 µM | 18.8 µM and 17.6 µM | 4.84 µM and 5.57 µM | 14 µM and 16.5 µM | 3.45 µM and 2.62 µM | 32 µM and 7.74 µM | 6.35 µM and 5.55 µM | 22.2 µM and 16.2 µM | 2.53 µM and 3.49 µM | 6.97 µM and 25.5 µM | 6.58 µM and 8.27 µM | 25.2 µM and 31.8 µM |
| COc1cccc2nc(Nc3cccc(NC(=O)c4ccc(N5CCN(C)CC5)c(C(F)(F)F)c4)c3)ccc12 | 2.01 µM | 6.62 µM | 0.909 µM | 1.83 | 1 µM | 3.37 µM | 0.937 µM | 2.03 µM | 1.06 µM | 2.28 µM | 2.26 µM | 8.61 µM | 1.25 µM | 4.24 µM | 0.895 µM | 1.66 µM | 0.967 µM | 1.92 µM | 1.81 µM | 6.38 µM |
| CC(=O)OC1C(O)C(C)OC(OC2C(OC(=O)C3CCC4C(C3)OC3(CC(OC(=O)/C=C/c5ccccc5)C(C)CO3)C43CO3)OC(C)C(O)C2OC(C)=O)C1O (stereo not given) |  | 0.225 µM |  | 0.0181 |  | 0.0441 µM |  | 1.82 µM |  | 0.0382 µM |  | 0.0522 µM |  | 0.0922 µM |  | 0.0285 µM |  | 0.145 µM |  | 0.0714 µM |
